Assay in all cases: NCI anticancer screen, dose series, 48 h
The test system of experiment [1] is BT-549.
In experiment [2] the test system is CAKI-1.
In experiment [3] the test system is CCRF-CEM.
Experiment [4] relates to DU-145.
For experiment [5], the system named is EKVX.
The subject of experiment [6] is HCT-116.
Experiment [7] concerns HCT-15.
For experiment [8], the system named is HL-60.
The subject of experiment [9] is HT-29.
Experiment [10] deals with IGROV-1.
Experiment [11] deals with OVCAR-8.
The subject of experiment [12] is RXF 393.
Experiment [13] relates to SF-268.
Experiment [14] concerns SF-295.
The subject of experiment [15] is SF-539.
Experiment [16] concerns SK-MEL-2.
Experiment [17] deals with SK-MEL-5.
The test system of experiment [18] is SW-620.
In experiment [19] the test system is UACC-62.
In experiment [20] the test system is NCI-H522.

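Results reflect a 48-hour exposure of cells in 96-well plates to compound at five concentrations. GI50 = concentration required for 50% inhibition of growth.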 Active and inactive are the calls of the source. No stated cut-off is given here; in the data, active = GI50 up to about 1.1 µM and inactive = higher. Some results are limits rather than exact numbers.

Take `CCOP(=O)(OCC)C(F)(F)Cc1cnc(C)c2c1COC(C)(C)O2`: the GI50 in experiment [1], in experiment [2], in experiment [3], in experiment [4], in [5] and in experiment [6] was > 10 µM (inactive) in each case. The GI50 was greater than 10 µM in [7]; > 10 µM (inactive) in [8]; > 10 µM (inactive) in [9]; > 10 µM (inactive) in experiment [10]; > 10 µM (inactive) in [11]; > 10 µM (inactive) in experiment [12]. The GI50 in experiment [13], in experiment [14], in experiment [15], in [16], in [17] and in [18] was > 10 µM (inactive) in each case. Besides, the GI50 in [19] was > 10 µM (inactive).

For `CCOP(=O)(OCC)C(C#N)Cc1ccco1` (centres undefined), the GI50 was > 10 µM (inactive) in [1]; > 10 µM (inactive) in experiment [2]; > 10 µM (inactive) in experiment [3]; 1.98 µM (inactive) in experiment [4]; > 10 µM (inactive) in experiment [5]; > 10 µM (inactive) in experiment [6]. Further, the GI50 in experiment [7] was greater than 10 µM; in experiment [8], > 10 µM (inactive); in experiment [9] it was > 10 µM (inactive); in [10] it was > 10 µM (inactive); in [11], > 10 µM (inactive); in [12], > 10 µM (inactive). The GI50 in experiment [13], in experiment [14], in experiment [15], in [16], in experiment [17] and in [18] was > 10 µM (inactive) throughout. The GI50 in experiment [19] was > 10 µM (inactive).

Take `COC1C(OC(N)=O)C(O)C(Oc2ccc3c(O)c(NC(=O)c4ccc(O)c(CC=C(C)C)c4)c(=O)oc3c2C)OC1(C)C` (centres undefined): the GI50 was > 100 µM (inactive) in [1]; > 100 µM (inactive) in [2]; 77.8 µM (inactive) in experiment [3]; > 100 µM (inactive) in experiment [4]; > 100 µM (inactive) in experiment [5]; > 100 µM (inactive) in experiment [6]. In addition, the GI50 in [7] is 60.5 µM; in experiment [9], > 100 µM (inactive); in experiment [10] it was > 100 µM (inactive); in experiment [11], > 100 µM (inactive); in experiment [12], > 100 µM (inactive); in [13] it was > 100 µM (inactive). In addition, the GI50 was > 100 µM (inactive) in experiment [15]; > 100 µM (inactive) in experiment [16]; > 100 µM (inactive) in experiment [17]; > 100 µM (inactive) in [18]; 69.2 µM (inactive) in experiment [19].

As to `c1ccc2c(c1)nc1n2CNC1`, the GI50 in experiment [1], in [2], in experiment [3], in [4], in experiment [5] and in experiment [6] was > 100 µM (inactive) each time. The GI50 in experiment [7] is greater than 100 µM; in [8] it was > 100 µM (inactive); in [9], > 100 µM (inactive); in experiment [10], > 100 µM (inactive); in experiment [12] it was > 100 µM (inactive); in [13], > 100 µM (inactive). Moreover, the GI50 in [14], in [15], in [16], in experiment [17], in [18] and in experiment [19] was > 100 µM (inactive) in each case.

In the case of `CCCCNC(=S)Nc1nc(C(=O)NNS(=O)(=O)c2ccccc2)cs1`, the GI50 in experiment [1] was 32.7 µM (inactive); in experiment [2], 27.7 µM (inactive); in experiment [3] it was 44.3 µM (inactive); in experiment [4], 35.5 µM (inactive); in experiment [5], 31.6 µM (inactive); in experiment [6] it was 26.2 µM (inactive). Besides, the GI50 was 36.2 µM in experiment [7]; > 10 µM (inactive) in experiment [9]; 24.9 µM (inactive) in experiment [10]; 28.8 µM (inactive) in [20]; 33.7 µM (inactive) in experiment [11]; 27.8 µM (inactive) in experiment [13]. The GI50 in experiment [14] is 36.2 µM (inactive); in experiment [15] it was 33.6 µM (inactive); in experiment [16] it was 22.6 µM (inactive); in experiment [17], 17 µM (inactive); in experiment [19], 22.9 µM (inactive).

`O=C(O)c1c[nH]c2c(Sc3ccccc3)nccc2c1=O`: the GI50 was 33 µM (inactive) in experiment [1]; > 100 µM (inactive) in [2]; 47 µM (inactive) in experiment [3]; > 100 µM (inactive) in [4]; 70.3 µM (inactive) in experiment [5]; > 100 µM (inactive) in [6]. For the same compound, the GI50 in experiment [7] is greater than 100 µM; in experiment [8], 78.7 µM (inactive); in experiment [9], > 100 µM (inactive); in [10], > 100 µM (inactive); in experiment [20], 76.7 µM (inactive); in experiment [11] it was > 100 µM (inactive). The GI50 in [13], in [14], in [15], in experiment [16], in experiment [17] and in experiment [18] was > 100 µM (inactive) throughout. Also, in experiment [19], the GI50 was > 100 µM (inactive).

On to `CC1=C(C(=O)NNC(=O)CC#N)CC(C(=O)NNC(=O)CC#N)=C(C)N1`, for which the GI50 in experiment [1] was > 100 µM (inactive); in [2] it was > 100 µM (inactive); in [4] it was > 100 µM (inactive); in experiment [5] it was > 100 µM (inactive); in experiment [6] it was > 100 µM (inactive); in experiment [7] it was greater than 100 µM. The GI50 in [8] is 82.6 µM (inactive); in experiment [9], > 100 µM (inactive); in [10], > 100 µM (inactive); in experiment [11] it was > 100 µM (inactive); in experiment [12], > 100 µM (inactive); in [13], > 100 µM (inactive). Also, the GI50 in [14], in experiment [15], in experiment [16], in [17] and in experiment [18] was > 100 µM (inactive) each time.

As to `O=[N+]([O-])c1cc2ccc1OCc1cccc(n1)COc1ccc(cc1[N+](=O)[O-])/C=N\CCCCCCCC/N=C\2`, the GI50 in [1], in experiment [2], in experiment [3], in [4], in [5] and in [6] was > 100 µM (inactive) throughout. Besides, the GI50 in experiment [7] was greater than 100 µM; in experiment [9] it was > 100 µM (inactive); in [10], > 100 µM (inactive); in [20], > 100 µM (inactive); in experiment [11], > 100 µM (inactive); in experiment [13] it was > 100 µM (inactive). In addition, the GI50 in experiment [14], in experiment [15], in experiment [16], in [17], in experiment [18] and in [19] was > 100 µM (inactive) each time.

For `O=C(N/S(=N/S(=O)(=O)c1ccc(Br)cc1)C(Cl)(Cl)Cl)c1ccccc1` (centres undefined), the GI50 was > 100 µM (inactive) in experiment [1]; > 100 µM (inactive) in experiment [3]; > 100 µM (inactive) in experiment [4]; > 100 µM (inactive) in experiment [5]; > 100 µM (inactive) in experiment [6]; greater than 100 µM in [7]. Also, the GI50 in experiment [9], in experiment [10], in [11], in experiment [12], in experiment [13] and in experiment [14] was > 100 µM (inactive) each time. The GI50 in experiment [15], in [16], in experiment [17], in experiment [18] and in experiment [19] was > 100 µM (inactive) each time.

For the compound `C=C(C)C12OC1[C@@]1(C)C(=CC2=O)CCC(O)[C@@H]1C` (some centres undefined), the GI50 is 4.19 µM (inactive) in experiment [1]; 0.398 µM (active) in [2]; 0.726 µM (active) in experiment [3]; 1.05 µM (active) in experiment [4]; 1.94 µM (inactive) in [5]; 1.15 µM (inactive) in [6]. The GI50 is 1.92 µM in experiment [7]; 1.16 µM (inactive) in [8]; 1.21 µM (inactive) in [9]; 0.891 µM (active) in [10]; 0.782 µM (active) in experiment [20]; 1.45 µM (inactive) in experiment [11]. The GI50 in experiment [13] is 2.14 µM (inactive); in experiment [14], 2.58 µM (inactive); in experiment [15], 1.97 µM (inactive); in experiment [16] it was 2.34 µM (inactive); in experiment [17], 3.22 µM (inactive); in experiment [18] it was 2.39 µM (inactive). In [19], the GI50 is 3.66 µM (inactive).

For the compound `CC(=O)N1C(C(=O)NC2CCCCC2)CSC1c1ccccc1` (centres undefined), the GI50 in experiment [1], in experiment [2], in experiment [3], in experiment [4], in experiment [5] and in experiment [6] was > 100 µM (inactive) each time. Further, the GI50 is greater than 100 µM in experiment [7]; > 100 µM (inactive) in experiment [8]; > 100 µM (inactive) in [9]; > 100 µM (inactive) in experiment [10]; > 100 µM (inactive) in experiment [20]; > 100 µM (inactive) in experiment [11]. The GI50 in [13], in experiment [14], in experiment [15], in experiment [16], in experiment [17] and in experiment [18] was > 100 µM (inactive) in each case. For the same compound, the GI50 in experiment [19] was > 100 µM (inactive).

The record behind these values is ChEMBL document CHEMBL1201862, “PubChem BioAssay data set” (2004).
